Legend:
[1] = target: Vascular endothelial growth factor receptor 2 (Homo sapiens, UniProt P35968); assay type: functional
[2] = target: T1, Muscarinic acetylcholine receptor M1 (Homo sapiens, UniProt P11229); assay type: functional, cell-based
T1 sequence (P11229 whole entry): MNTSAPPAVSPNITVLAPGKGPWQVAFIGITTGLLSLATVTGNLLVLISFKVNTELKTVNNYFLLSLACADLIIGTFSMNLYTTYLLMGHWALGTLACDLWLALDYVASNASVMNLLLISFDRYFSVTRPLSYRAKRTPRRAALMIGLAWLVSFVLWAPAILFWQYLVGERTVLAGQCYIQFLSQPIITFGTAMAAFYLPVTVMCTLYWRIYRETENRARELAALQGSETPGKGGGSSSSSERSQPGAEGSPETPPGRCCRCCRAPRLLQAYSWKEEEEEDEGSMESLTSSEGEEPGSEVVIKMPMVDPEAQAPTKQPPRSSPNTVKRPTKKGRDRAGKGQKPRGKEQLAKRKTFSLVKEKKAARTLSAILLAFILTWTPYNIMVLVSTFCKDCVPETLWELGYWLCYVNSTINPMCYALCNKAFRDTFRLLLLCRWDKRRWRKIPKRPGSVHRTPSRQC

[3] = target: T1, Muscarinic acetylcholine receptor M1; assay type: functional, cell-based; remark: listed apart in the source
[4] = target: Gamma-aminobutyric acid receptor subunit alpha-1/alpha-2/beta-2/gamma-2 (Homo sapiens, UniProt P14867+P18507+P47869+P47870); assay type: protein-complex assay
[5] = target: 5-hydroxytryptamine receptor 2B (Homo sapiens, UniProt P41595); assay type: functional, cell-based
Adenosine receptor A3 = target: T2, Adenosine receptor A3 (Homo sapiens, UniProt P0DMS8)
T2 sequence (P0DMS8 whole entry): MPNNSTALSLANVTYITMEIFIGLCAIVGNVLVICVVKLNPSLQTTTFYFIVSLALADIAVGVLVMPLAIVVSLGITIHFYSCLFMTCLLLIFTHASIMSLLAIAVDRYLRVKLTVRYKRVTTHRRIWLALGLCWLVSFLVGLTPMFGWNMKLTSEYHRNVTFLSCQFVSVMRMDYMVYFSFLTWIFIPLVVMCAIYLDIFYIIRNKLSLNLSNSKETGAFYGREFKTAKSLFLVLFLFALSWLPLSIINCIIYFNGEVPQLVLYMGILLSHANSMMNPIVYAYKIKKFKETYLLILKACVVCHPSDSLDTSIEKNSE

[6] = target: T3, 5-hydroxytryptamine receptor 1A (Homo sapiens, UniProt P08908); assay type: functional, cell-based
T3 sequence (P08908 whole entry): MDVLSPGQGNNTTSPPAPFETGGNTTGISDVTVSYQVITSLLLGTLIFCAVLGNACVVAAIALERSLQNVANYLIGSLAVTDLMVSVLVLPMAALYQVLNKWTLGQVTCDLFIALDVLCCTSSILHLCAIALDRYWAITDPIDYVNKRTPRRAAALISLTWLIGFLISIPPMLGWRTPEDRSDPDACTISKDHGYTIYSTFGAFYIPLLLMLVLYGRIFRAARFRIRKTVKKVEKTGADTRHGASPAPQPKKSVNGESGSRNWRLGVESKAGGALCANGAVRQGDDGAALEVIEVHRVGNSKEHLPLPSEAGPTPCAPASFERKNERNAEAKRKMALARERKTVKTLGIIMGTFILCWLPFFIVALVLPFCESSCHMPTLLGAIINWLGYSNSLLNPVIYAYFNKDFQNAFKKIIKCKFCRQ

[7] = target: T4, Amine oxidase [flavin-containing] A (Homo sapiens, UniProt P21397); assay type: functional
T4 sequence (P21397 whole entry): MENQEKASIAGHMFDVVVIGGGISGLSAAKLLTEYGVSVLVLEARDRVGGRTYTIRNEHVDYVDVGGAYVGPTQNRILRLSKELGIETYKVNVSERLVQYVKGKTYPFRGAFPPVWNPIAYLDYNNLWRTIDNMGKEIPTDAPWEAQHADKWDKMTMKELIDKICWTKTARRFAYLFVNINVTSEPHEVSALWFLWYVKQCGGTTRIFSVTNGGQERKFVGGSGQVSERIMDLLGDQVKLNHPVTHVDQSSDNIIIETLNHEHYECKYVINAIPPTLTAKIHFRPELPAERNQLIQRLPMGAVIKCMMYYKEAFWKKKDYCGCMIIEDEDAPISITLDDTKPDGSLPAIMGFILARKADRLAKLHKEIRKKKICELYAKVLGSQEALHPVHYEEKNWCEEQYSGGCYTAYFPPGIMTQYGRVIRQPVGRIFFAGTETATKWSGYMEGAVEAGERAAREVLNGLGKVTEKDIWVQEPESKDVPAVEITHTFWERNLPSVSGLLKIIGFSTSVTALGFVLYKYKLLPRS

D(1A) dopamine receptor = D(1A) dopamine receptor (Homo sapiens, UniProt P21728); assay type: functional, cell-based
Adenosine receptor A2a = Adenosine receptor A2a (Homo sapiens, UniProt P29274)
D(3) dopamine receptor = D(3) dopamine receptor (Homo sapiens, UniProt P35462)
[8] = target: T5, Neuropeptide Y receptor type 1 (Homo sapiens, UniProt P25929)
T5 sequence (P25929 whole entry): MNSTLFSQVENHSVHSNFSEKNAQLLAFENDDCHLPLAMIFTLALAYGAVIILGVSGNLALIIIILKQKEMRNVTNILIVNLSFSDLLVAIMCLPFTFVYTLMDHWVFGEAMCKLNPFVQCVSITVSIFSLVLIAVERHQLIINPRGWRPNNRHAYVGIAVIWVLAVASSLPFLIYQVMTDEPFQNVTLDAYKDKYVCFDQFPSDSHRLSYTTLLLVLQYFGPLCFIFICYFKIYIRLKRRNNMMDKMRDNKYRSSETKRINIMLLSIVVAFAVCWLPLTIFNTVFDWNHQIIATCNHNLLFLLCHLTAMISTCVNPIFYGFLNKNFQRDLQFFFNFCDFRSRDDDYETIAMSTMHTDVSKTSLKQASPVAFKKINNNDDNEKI

[9] = target: Kappa-type opioid receptor (Homo sapiens, UniProt P41145)
Also: assay procedure not described here.

Vascular endothelial growth factor receptor 2, sequence (P35968 whole entry): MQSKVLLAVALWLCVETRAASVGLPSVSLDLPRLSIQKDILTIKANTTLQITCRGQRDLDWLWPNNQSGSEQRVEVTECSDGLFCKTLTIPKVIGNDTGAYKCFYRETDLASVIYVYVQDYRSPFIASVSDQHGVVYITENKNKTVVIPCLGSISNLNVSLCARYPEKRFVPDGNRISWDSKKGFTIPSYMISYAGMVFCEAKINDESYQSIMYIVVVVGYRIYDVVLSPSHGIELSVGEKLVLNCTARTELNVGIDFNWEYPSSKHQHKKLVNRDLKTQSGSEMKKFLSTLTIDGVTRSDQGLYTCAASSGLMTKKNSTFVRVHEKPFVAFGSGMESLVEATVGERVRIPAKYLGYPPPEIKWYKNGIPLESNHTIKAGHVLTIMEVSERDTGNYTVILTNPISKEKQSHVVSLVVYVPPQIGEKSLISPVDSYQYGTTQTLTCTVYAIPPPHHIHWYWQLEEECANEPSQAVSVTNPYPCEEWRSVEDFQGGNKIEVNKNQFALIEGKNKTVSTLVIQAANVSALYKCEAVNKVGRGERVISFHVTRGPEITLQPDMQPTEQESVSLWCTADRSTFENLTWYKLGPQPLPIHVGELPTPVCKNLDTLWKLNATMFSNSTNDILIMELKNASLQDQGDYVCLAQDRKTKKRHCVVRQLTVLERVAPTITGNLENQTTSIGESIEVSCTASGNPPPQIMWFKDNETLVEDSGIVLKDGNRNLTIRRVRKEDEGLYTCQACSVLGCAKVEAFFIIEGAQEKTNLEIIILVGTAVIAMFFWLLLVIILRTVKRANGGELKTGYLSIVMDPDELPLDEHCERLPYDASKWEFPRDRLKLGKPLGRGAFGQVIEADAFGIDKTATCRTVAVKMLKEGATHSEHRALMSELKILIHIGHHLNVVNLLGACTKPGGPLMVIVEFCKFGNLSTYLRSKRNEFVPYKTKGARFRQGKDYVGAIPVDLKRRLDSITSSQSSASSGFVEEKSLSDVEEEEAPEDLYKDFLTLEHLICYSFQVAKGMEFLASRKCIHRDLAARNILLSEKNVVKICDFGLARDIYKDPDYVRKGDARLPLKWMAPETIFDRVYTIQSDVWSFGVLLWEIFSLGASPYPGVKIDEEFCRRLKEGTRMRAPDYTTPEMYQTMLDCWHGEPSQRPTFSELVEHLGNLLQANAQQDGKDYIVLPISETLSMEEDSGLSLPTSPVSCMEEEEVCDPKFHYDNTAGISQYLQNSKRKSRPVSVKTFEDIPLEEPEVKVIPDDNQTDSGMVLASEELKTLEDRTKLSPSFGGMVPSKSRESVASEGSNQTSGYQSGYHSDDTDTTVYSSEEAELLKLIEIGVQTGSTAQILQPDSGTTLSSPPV
Gamma-aminobutyric acid receptor subunit alpha-1/alpha-2/beta-2/gamma-2, sequence (P14867 whole entry): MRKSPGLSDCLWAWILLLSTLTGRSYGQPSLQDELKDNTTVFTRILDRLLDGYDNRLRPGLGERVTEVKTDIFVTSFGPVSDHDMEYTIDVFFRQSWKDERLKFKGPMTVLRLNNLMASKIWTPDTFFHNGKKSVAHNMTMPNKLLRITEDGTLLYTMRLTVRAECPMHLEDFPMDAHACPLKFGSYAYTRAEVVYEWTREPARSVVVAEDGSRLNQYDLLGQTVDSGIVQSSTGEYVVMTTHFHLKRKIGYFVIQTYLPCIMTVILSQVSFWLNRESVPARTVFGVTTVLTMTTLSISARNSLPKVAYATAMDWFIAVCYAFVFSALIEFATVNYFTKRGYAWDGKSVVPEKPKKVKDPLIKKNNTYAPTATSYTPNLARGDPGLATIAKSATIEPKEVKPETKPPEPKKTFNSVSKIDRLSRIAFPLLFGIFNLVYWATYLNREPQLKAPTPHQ
Gamma-aminobutyric acid receptor subunit alpha-1/alpha-2/beta-2/gamma-2, sequence (P47870 whole entry): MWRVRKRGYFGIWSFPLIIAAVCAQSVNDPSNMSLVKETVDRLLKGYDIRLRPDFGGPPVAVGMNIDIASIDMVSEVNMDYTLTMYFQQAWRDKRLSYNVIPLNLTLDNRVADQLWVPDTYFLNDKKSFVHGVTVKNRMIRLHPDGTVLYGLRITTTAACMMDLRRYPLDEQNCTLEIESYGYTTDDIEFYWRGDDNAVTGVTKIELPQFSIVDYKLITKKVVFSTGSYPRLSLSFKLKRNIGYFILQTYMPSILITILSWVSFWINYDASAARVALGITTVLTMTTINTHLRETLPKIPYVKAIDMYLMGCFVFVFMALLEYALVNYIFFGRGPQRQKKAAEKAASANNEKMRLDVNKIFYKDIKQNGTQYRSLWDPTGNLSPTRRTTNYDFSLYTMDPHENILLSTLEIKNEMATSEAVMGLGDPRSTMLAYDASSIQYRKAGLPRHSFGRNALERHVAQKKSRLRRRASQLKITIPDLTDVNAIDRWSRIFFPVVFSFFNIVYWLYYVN
Gamma-aminobutyric acid receptor subunit alpha-1/alpha-2/beta-2/gamma-2, sequence (P18507 whole entry): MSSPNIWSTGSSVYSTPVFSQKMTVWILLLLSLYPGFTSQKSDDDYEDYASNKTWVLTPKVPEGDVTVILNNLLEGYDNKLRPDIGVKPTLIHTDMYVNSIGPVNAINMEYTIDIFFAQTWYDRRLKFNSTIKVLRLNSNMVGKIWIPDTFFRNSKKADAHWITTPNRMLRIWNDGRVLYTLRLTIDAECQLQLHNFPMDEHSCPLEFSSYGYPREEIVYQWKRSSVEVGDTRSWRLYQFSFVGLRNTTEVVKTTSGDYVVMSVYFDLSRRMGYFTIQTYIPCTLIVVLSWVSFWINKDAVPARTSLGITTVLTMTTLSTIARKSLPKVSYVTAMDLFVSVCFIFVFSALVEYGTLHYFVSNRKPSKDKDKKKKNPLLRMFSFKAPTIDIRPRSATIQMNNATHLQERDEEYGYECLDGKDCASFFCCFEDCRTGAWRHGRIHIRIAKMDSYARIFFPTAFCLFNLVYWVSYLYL
Gamma-aminobutyric acid receptor subunit alpha-1/alpha-2/beta-2/gamma-2, sequence (P47869 whole entry): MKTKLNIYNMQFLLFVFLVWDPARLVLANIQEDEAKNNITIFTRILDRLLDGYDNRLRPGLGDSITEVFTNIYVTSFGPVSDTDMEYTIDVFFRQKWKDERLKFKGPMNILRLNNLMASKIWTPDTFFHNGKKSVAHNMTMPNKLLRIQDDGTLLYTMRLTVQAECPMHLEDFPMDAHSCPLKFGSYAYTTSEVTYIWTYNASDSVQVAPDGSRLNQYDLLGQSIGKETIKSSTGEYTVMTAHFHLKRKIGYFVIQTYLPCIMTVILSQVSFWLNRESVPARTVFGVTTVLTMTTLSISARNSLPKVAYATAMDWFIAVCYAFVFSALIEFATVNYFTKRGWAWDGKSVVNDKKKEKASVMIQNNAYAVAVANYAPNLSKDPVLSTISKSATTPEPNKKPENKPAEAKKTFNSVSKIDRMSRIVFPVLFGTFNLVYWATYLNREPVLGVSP
Adenosine receptor A2a, sequence (P29274 whole entry): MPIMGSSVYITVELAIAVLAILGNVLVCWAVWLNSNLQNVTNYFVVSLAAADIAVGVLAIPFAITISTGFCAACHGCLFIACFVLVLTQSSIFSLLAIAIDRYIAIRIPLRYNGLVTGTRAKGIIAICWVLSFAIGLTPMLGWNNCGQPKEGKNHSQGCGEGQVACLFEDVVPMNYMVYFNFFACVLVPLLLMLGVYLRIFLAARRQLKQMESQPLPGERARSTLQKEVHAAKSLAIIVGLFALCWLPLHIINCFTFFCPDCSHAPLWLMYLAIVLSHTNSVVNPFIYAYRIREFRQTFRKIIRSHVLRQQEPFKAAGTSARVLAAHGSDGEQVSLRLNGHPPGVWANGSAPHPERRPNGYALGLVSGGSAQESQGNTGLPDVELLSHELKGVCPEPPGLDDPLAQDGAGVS
5-hydroxytryptamine receptor 2B, sequence (P41595 whole entry): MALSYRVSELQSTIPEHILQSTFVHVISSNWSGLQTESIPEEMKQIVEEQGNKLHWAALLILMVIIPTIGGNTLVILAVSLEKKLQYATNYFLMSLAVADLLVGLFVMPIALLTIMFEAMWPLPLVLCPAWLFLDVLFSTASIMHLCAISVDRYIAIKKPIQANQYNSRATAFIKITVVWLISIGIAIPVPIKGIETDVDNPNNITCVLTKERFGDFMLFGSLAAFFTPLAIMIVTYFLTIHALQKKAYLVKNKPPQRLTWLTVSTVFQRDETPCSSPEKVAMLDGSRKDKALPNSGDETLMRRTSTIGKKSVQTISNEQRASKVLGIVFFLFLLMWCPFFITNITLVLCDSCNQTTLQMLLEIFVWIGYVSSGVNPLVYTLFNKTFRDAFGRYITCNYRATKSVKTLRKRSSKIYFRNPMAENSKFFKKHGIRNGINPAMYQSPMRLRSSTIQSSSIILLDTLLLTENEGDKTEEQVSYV
Kappa-type opioid receptor, sequence (P41145 whole entry): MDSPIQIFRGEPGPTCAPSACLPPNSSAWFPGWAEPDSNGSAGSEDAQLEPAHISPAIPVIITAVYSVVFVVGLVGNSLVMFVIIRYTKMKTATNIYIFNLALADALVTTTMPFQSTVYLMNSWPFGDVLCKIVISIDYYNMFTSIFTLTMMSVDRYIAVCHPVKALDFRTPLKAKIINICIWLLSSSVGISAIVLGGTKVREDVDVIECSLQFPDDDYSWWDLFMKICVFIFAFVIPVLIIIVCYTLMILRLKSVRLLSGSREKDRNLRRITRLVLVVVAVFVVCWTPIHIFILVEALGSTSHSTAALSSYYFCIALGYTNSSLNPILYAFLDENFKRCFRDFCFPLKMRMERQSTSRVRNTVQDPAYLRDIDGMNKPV
D(3) dopamine receptor, sequence (P35462 whole entry): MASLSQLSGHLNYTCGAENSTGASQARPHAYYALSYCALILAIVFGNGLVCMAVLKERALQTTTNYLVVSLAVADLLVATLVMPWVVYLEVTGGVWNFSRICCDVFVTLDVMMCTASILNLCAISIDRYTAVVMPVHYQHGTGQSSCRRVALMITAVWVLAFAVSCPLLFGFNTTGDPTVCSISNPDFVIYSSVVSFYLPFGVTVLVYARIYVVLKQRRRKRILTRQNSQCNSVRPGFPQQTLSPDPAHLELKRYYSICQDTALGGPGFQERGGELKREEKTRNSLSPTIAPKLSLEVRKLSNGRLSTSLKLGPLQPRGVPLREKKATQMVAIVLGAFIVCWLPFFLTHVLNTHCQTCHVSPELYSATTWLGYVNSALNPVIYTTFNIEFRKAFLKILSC

SMILES: Cc1onc(-c2c(Cl)cccc2Cl)c1C(=O)N[C@@H]1C(=O)N2[C@@H]1SC(C)(C)[C@@H]2C(=O)O [DICLOXACILLIN]
- AC50 [1]: > 30 µM
- AC50 [2]: > 30 µM
- AC50 [3]: > 30 µM
- AC50 [4]: > 30 µM

SMILES: C[C@@H](O)[C@H]1C(=O)N2C(C(=O)O)=C([C@H]3CCCO3)S[C@H]12 [FAROPENEM]
- AC50 [1]: > 30 µM
- AC50 [2]: > 30 µM
- AC50 [3]: > 30 µM
- AC50 [4]: > 30 µM

SMILES: COCCOc1cnc(NS(=O)(=O)c2ccccc2)nc1 [GLYMIDINE]
- AC50 [1]: > 30 µM
- AC50 [2]: > 30 µM
- AC50 [3]: > 30 µM
- AC50 [4]: > 30 µM

SMILES: CC(N)CCCC(C)(C)O (centres undefined) [HEPTAMINOL]
- AC50 [1]: > 30 µM
- AC50 [2]: > 30 µM
- AC50 [3]: > 30 µM
- AC50 [4]: > 30 µM

SMILES: CCC(=O)O[C@]1(C(=O)COC(C)=O)CC[C@H]2[C@@H]3CCC4=CC(=O)CC[C@]4(C)[C@H]3[C@@H](O)C[C@@]21C [HYDROCORTISONE ACEPONATE]
- AC50 [1]: > 30 µM
- AC50 [2]: 19.3 µM
- AC50 [3]: > 30 µM
- AC50 [4]: > 30 µM

SMILES: O=[N+]([O-])O[C@H]1CO[C@H]2[C@@H]1OC[C@H]2O[N+](=O)[O-] [ISOSORBIDE DINITRATE]
- AC50 [1]: > 30 µM
- AC50 [2]: > 30 µM
- AC50 [3]: > 30 µM
- AC50 [4]: > 30 µM

SMILES: Cc1cc(CCN2CCN(c3cccc(Cl)c3)CC2)n[nH]1 [MEPIPRAZOLE]
- AC50 [1]: > 30 µM
- AC50 [2]: 26.3 µM
- AC50 [3]: > 30 µM
- AC50 [4]: > 30 µM

SMILES: CC[N+](C)(CC)CCOC(=O)C1c2ccccc2Oc2ccccc21 [METHANTHELINE]
- AC50 [1]: > 30 µM
- AC50 [2]: 0.0287 µM
- AC50 [3]: > 30 µM
- AC50 [4]: > 30 µM

SMILES: CCOC(=O)[C@H](CCc1ccccc1)N[C@@H](C)C(=O)N1Cc2cc(OC)c(OC)cc2C[C@H]1C(=O)O [MOEXIPRIL]
- AC50 [1]: > 30 µM
- AC50 [2]: > 30 µM
- AC50 [3]: > 30 µM
- AC50 [4]: > 30 µM

SMILES: CC(c1ccc(Cl)c(Cl)c1)N1N=C(N)CC1=O (centres undefined) [MUZOLIMINE]
- AC50 [1]: > 30 µM
- AC50 [2]: > 30 µM
- AC50 [3]: > 30 µM
- AC50 [4]: > 30 µM

SMILES: CCN(CC)CCOC(=O)C(Cc1cccc2ccccc12)CC1CCCO1 (centres undefined) [NAFRONYL]
- AC50 [1]: > 30 µM
- AC50 [2]: 24.2 µM
- AC50 [3]: > 30 µM
- AC50 [4]: > 30 µM

SMILES: N[C@@H](Cc1c[nH]c2ccc(O)cc12)C(=O)O [OXITRIPTAN]
- AC50 [1]: > 30 µM
- AC50 [2]: > 30 µM
- AC50 [3]: > 30 µM
- AC50 [4]: > 30 µM

SMILES: CNC(=O)Oc1ccc2c(c1)[C@]1(C)CCN(C)[C@@H]1N2C [PHYSOSTIGMINE]
- AC50 [5]: > 30 µM
- AC50 (Adenosine receptor A3): > 30 µM
- AC50 [6]: > 30 µM
- AC50 [1]: > 30 µM
- AC50 [7]: > 30 µM
- AC50 (D(1A) dopamine receptor): > 30 µM
- AC50 (Adenosine receptor A2a): > 30 µM
- AC50 (D(3) dopamine receptor): > 30 µM
- AC50 [4]: > 30 µM
- AC50 [8]: > 30 µM
- AC50 [9]: 2.2 µM

SMILES: C1CNCCN1 [PIPERAZINE]
- AC50 [1]: 23.3 µM
- AC50 [2]: > 30 µM
- AC50 [3]: > 30 µM
- AC50 [4]: > 30 µM

SMILES: c1cc(CN2CCCNCCNCCCNCC2)ccc1CN1CCCNCCNCCCNCC1 [PLERIXAFOR]
- AC50 [1]: > 30 µM
- AC50 [2]: > 30 µM
- AC50 [3]: > 30 µM
- AC50 [4]: > 30 µM

SMILES: CO[C@H]1/C=C/O[C@@]2(C)Oc3c(C)c(O)c4c(O)c(cc(O)c4c3C2=O)NC(=O)/C(C)=C\C=C\[C@H](C)[C@H](O)[C@@H](C)[C@@H](O)[C@@H](C)[C@H](OC(C)=O)[C@@H]1C [RIFAMYCIN]
- AC50 [1]: > 30 µM
- AC50 [3]: 11.6 µM
- AC50 [4]: > 30 µM

SMILES: CCCC(=O)O[C@H]1[C@H](C)O[C@@H](O[C@H]2[C@H](N(C)C)[C@@H](O)[C@H](O[C@H]3[C@@H](CC=O)C[C@@H](C)[C@@H](O)/C=C/C=C/C[C@@H](C)OC(=O)C[C@@H](O)[C@@H]3OC)O[C@@H]2C)C[C@@]1(C)OC(=O)CC [ROKITAMYCIN]
- AC50 [1]: > 30 µM
- AC50 [2]: > 30 µM
- AC50 [3]: > 30 µM
- AC50 [4]: > 30 µM

SMILES: COc1cc([C@@H]2c3cc4c(cc3[C@@H](O[C@@H]3O[C@@H]5CO[C@@H](c6cccs6)O[C@H]5[C@H](O)[C@H]3O)[C@H]3COC(=O)[C@H]23)OCO4)cc(OC)c1O [TENIPOSIDE]
- AC50 [1]: > 30 µM
- AC50 [2]: > 30 µM
- AC50 [3]: > 30 µM
- AC50 [4]: > 30 µM

SMILES: CCSc1ccc2c(c1)N(CCCN1CCN(C)CC1)c1ccccc1S2 [THIETHYLPERAZINE]
- AC50 (Adenosine receptor A3): > 10 µM
- AC50 [1]: > 30 µM
- AC50 [7]: > 30 µM
- AC50 [3]: 29.1 µM
- AC50 (Adenosine receptor A2a): > 30 µM
- AC50 [4]: > 30 µM

Reference: ChEMBL document CHEMBL5291721, “A preclinical secondary pharmacology resource illuminates target-adverse drug reaction associations of marketed drugs” (Nat Commun, 2023)
